In publication PMC3001719, “The heme sensing response regulator HssR in Staphylococcus aureus but not the homologous RR23 in Listeria monocytogenes modulates susceptibility to the antimicrobial peptide plectasin” (BMC Microbiology, 2010):

Legend:
[1] = system: S. aureus 8325-4 hssR::bursa/pRMC2-hssRS (complementation of hssR transposon mutant); test: MIC, microbroth dilution; format: cell-based, Staphylococcus aureus; conditions: 8325-4 hssR::bursa/pRMC2-hssRS compared to 8325-4 hssR::bursa, MIC
Procedure: Protamine was purchased from Sigma (P4020-5G). Plectasin, eurocin, novicidin, and novispirin G10 were supplied by Department of Antiinfective Discovery, Novozymes A/S. The host defence peptides were dissolved in 0.01% acetic acid/0.1% bovine serum albumin (Sigma, A7906).
Minimal inhibitory concentrations (MIC) of plectasin, eurocin, protamine, novicidin, and novispirin G10 were determined using a microbroth dilution method. Colonies from a BHI plate incubated overnight at 37 °C were suspended in MHB pH 7.4 to an absorbance at 546 nm of 0.11-0.12 at 546 nm (approx. 1.0 × 10^8 CFU/ml) and diluted in MHB to a concentration of 5.0 × 10^5 CFU/ml. Ninety μl of bacterial suspension was incubated with 10 μl of peptide solution in polypropylene 96-well plates (Nunc, 442587) for 18-24 h at 37°C. The peptide solutions were made fresh on the day of assay. The range of concentrations assayed were 0.25-256 μg/ml for plectasin and eurocin, 0.125-128 μg/ml for protamine and novispirin G10, and 0.031-32 μg/ml for novicidin. MIC was the lowest peptide concentration at which visual growth was inhibited.

[2] = system: plasmid DNA (pBluescript II SK+); test: DNA-binding analysis by in vitro gel retardation; conditions: 100 ng plasmid DNA with increasing amounts of peptide, 1 h at room temperature, data not shown
Procedure: Gel retardation analysis were performed as described by Nan et al by mixing 100 ng of plasmid DNA (pBluescript II SK^+(Stratagene)) with increasing amounts of peptide in 20 μl binding buffer (5% glycerol, 10 mM Tris, 1 mM EDTA, 1 mM dithiothreitol, 20 mM KCL and 50 μg ml^-1 bovine serum albumin). Reaction mixtures were incubated 1 h at room temperature and subjected to 1% agarose gel electrophoresis and visualised using ethidium bromide.

[3] = system: hrtB and hssR expression in wild type S. aureus; test: Expression of hrtB and hssR, northern blot and quantitative real-time PCR; format: cell-based, Staphylococcus aureus; conditions: plectasin 35 μg/ml, 10 and 90 minutes, northern blot and quantitative real-time PCR (P > 0.05)
Procedure: Wild type S. aureus and the hssR mutant were grown to an absorbance at 600 nm of 0.45 ± 0.1, samples were withdrawn for the isolation of RNA. Plectasin (35 μg/ml) was added to the growing culture, and after 10 and 90 minutes samples were also withdrawn. Cells were quickly cooled and lysed mechanically using the FastPrep machine (Bio101; Q-biogene), and RNA was isolated by the RNeasy kit (QIAGEN, Valencia, Calif.) according to the manufacturer's instructions. Northern Blotting: RNA was transferred to a nylon membrane (Boehringer Mannheim) by capillary blotting as previously described. Hybridization was performed using gene-specific probes that had been labelled with [^32P]dCTP using the Ready-to-Go DNA-labelling beads from Amersham Biosciences. Primers for probes amplifying hrtB and hssR: hrtB-1F:(5'[…]3'), hrtB-2R: (5'[…]3'), hssR-1F: (5'[…]3'), hssR-2R:(5' […]3'). All steps were repeated in two independent experiments giving similar results. Quantitative RT-PCR: RNA was treated with DNase and RevertAid™ H Minus first strand cDNA synthesis Kit (Fermentas). […] Statistical analysis on QRTPCR results using GraphPad prism5, 1Way Anova with Dunnett's Multiple comparison test (GraphPad Software, Inc) determined changes in expression comparing time 0 to time 10 minutes or 90 minutes.

S. aureus wild type = test: Spontaneous mutation control on plectasin plates; format: cell-based, Staphylococcus aureus; conditions: S. aureus wild type grown on TSB with 4, 5 or 10 fold MIC of plectasin
Procedure: The transposon mutant libraries were screened on agar plates for increased resistance to plectasin as compared to wild-type sensitivity. Wild-type sensitivity was determined by plating approx. 1.0 × 10^7 CFU/ml on TSB agar containing plectasin (S. aureus) and approx. 1.0 × 10^5 CFU/ml on Muller Hinton Broth agar plates (MHB, 212322 Becton Dickinson) with plectasin (L. monocytogenes). Plates were incubated at 37°C for 3 days and inspected for growth. The transposon libraries were screened on TSB agar with 300 μg/ml, 500 or 750 μg/ml plectasin (S. aureus) or MHB plates with 250 μg/ml or 500 μg/ml plectasin (L. monocytogenes) at 37°C for up to 7 days.

L. monocytogenes = conditions: cited from earlier work
Text: (§1) In the present study, we addressed the response of two human pathogens, S. aureus and L. monocytogenes to plectasin. […] In addition, the two bacteria represent different routes of infection and may be exposed to different arrays of HDPs. S. aureus is a hospital- and community-acquired pathogen that causes a wide range of diseases including septicaemia, toxic-shock syndrome and food poisoning ...

[4] = system: methicillin resistant S. aureus (MRSA); conditions: cited from earlier work
Text: as §1

CC[C@H](C)[C@@H]1NC(=O)[C@H](CO)NC(=O)[C@H](CCCCN)NC(=O)[C@@H]2CSSC[C@@H](C(=O)N[C@@H](Cc3ccc(O)cc3)C(=O)O)NC(=O)[C@H](CCCCN)NC(=O)[C@@H]3CSSC[C@H](NC(=O)[C@H](CCC(N)=O)NC(=O)[C@H](CCSC)NC(=O)[C@H](CC(=O)O)NC(=O)[C@H](CC(=O)O)NC(=O)[C@H](CCC(=O)O)NC(=O)[C@H](CC(=O)O)NC(=O)[C@H](Cc4c[nH]c5ccccc45)NC(=O)[C@@H]4CCCN4C(=O)CNC(=O)[C@H](CC(N)=O)NC(=O)[C@@H](NC(=O)CNC(=O)[C@H](Cc4ccccc4)NC(=O)CN)CSSC[C@H](NC(=O)[C@H](Cc4ccc(O)cc4)NC(=O)CNC(=O)CNC(=O)[C@H](CCCCN)NC(=O)[C@H](Cc4ccc(O)cc4)NC(=O)CNC(=O)[C@H](CCCCN)NC1=O)C(=O)N[C@@H](C)C(=O)N[C@@H](CCCCN)C(=O)NCC(=O)NCC(=O)N[C@@H](Cc1ccccc1)C(=O)N[C@@H](C(C)C)C(=O)N3)C(=O)N[C@@H](Cc1c[nH]cn1)C(=O)N[C@@H](CC(N)=O)C(=O)N[C@@H](Cc1c[nH]cn1)C(=O)N2 [plectasin]
Decrease of resistance by complementation [1]: 2 fold
Binding to DNA [2]: unable to demonstrate binding
Expression of hrtB and hssR [3]: no change of expression
Spontaneous mutations leading to changes in sensitivity (S. aureus wild type): no spontaneous mutations
MIC (L. monocytogenes): above 64 mg/L
MIC [4]: 16 to 32 µg/mL
